≈ marks a conversion by molar mass, not a printed value.
Columns and labels:
Type in all cases: functional
Aspergillus fumigatus [1] = experiment: Antifungal activity against Aspergillus fumigatus at 100 ug/disc after 48 hr by paper disk diffusion method; details: read-out: IZ
Klebsiella pneumoniae [2] = experiment: Antibacterial activity against Klebsiella pneumoniae after 24 hr by agar streak dilution method
Bacillus subtilis [3] = experiment: Antibacterial activity against Bacillus subtilis after 24 hr by agar streak dilution method
Pseudomonas aeruginosa [4] = experiment: Antibacterial activity against Pseudomonas aeruginosa at 100 ug/disk after 24 hr by paper disk diffusion method; details: read-out: IZ
Escherichia coli [5] = experiment: Antibacterial activity against Escherichia coli after 24 hr by agar streak dilution method
Pseudomonas aeruginosa [6] = experiment: Antibacterial activity against Pseudomonas aeruginosa after 24 hr by agar streak dilution method
Shigella flexneri [7] = experiment: Antibacterial activity against Shigella flexneri at 100 ug/disc after 24 hr by paper disk diffusion method; details: read-out: IZ
Staphylococcus aureus [8] = experiment: Antibacterial activity against Staphylococcus aureus at 100 ug/disc after 24 hr by paper disk diffusion method; details: read-out: IZ
Aspergillus fumigatus [9] = experiment: Antifungal activity against Aspergillus fumigatus after 48 hr by agar streak dilution method
Bacillus subtilis [10] = experiment: Antibacterial activity against Bacillus subtilis at 100 ug/disk after 24 hr by paper disk diffusion method; details: read-out: IZ
Shigella flexneri [11] = experiment: Antibacterial activity against Shigella flexneri after 24 hr by agar streak dilution method
Aspergillus clavatus [12] = experiment: Antifungal activity against Aspergillus clavatus at 100 ug/disc after 48 hr by paper disk diffusion method; details: read-out: IZ
Staphylococcus aureus [13] = experiment: Antibacterial activity against Staphylococcus aureus after 24 hr by agar streak dilution method
Aspergillus clavatus [14] = experiment: Antifungal activity against Aspergillus clavatus after 48 hr by agar streak dilution method
Salmonella typhi [15] = experiment: Antibacterial activity against Salmonella enterica subsp. enterica serovar Typhi after 24 hr by agar streak dilution method
Proteus vulgaris [16] = experiment: Antibacterial activity against Proteus vulgaris at 100 ug/disk after 24 hr by paper disk diffusion method; details: read-out: IZ
Salmonella typhi [17] = experiment: Antibacterial activity against Salmonella enterica subsp. enterica serovar Typhi at 100 ug/disk after 24 hr by paper disk diffusion method; details: read-out: IZ
Candida albicans [18] = experiment: Antifungal activity against Candida albicans at 100 ug/disk after 48 hr by paper disk diffusion method; details: read-out: IZ
Aspergillus niger [19] = experiment: Antifungal activity against Aspergillus niger after 48 hr by agar streak dilution method
Candida albicans [20] = experiment: Antifungal activity against Candida albicans after 48 hr by agar streak dilution method
Proteus vulgaris [21] = experiment: Antibacterial activity against Proteus vulgaris after 24 hr by agar streak dilution method
Aspergillus niger [22] = experiment: Antifungal activity against Aspergillus niger at 100 ug/disk after 48 hr by paper disk diffusion method; details: read-out: IZ
Klebsiella pneumoniae [23] = experiment: Antibacterial activity against Klebsiella pneumoniae at 100 ug/disk after 24 hr by paper disk diffusion method; details: read-out: IZ
Escherichia coli [24] = experiment: Antibacterial activity against Escherichia coli at 100 ug/disk after 24 hr by paper disk diffusion method; details: read-out: IZ

Row | SMILES | zone of inhibition at 100 µg/disc (Aspergillus fumigatus [1]) | MIC (Klebsiella pneumoniae [2]) | MIC (Bacillus subtilis [3]) | zone of inhibition at 100 µg/disc (Pseudomonas aeruginosa [4]) | MIC (Escherichia coli [5]) | MIC (Pseudomonas aeruginosa [6]) | zone of inhibition at 100 µg/disc (Shigella flexneri [7]) | zone of inhibition at 100 µg/disc (Staphylococcus aureus [8]) | MIC (Aspergillus fumigatus [9]) | zone of inhibition at 100 µg/disc (Bacillus subtilis [10]) | MIC (Shigella flexneri [11]) | zone of inhibition at 100 µg/disc (Aspergillus clavatus [12]) | MIC (Staphylococcus aureus [13]) | MIC (Aspergillus clavatus [14]) | MIC (Salmonella typhi [15]) | zone of inhibition at 100 µg/disc (Proteus vulgaris [16]) | zone of inhibition at 100 µg/disc (Salmonella typhi [17]) | zone of inhibition at 100 µg/disc (Candida albicans [18]) | MIC (Aspergillus niger [19]) | MIC (Candida albicans [20]) | also measured
1 | Cc1ccc(C2SCC(=O)N2c2ccc(Nc3nc(Oc4ccc5c(C)cc(=O)oc5c4)nc(N(C)C)n3)cc2)cc1 (stereo not drawn) | 18 mm | 100 µg/mL (≈ 172 µM) | 25 µg/mL (≈ 43.1 µM) | 20 mm | 100 µg/mL (≈ 172 µM) | 50 µg/mL (≈ 86.1 µM) | 20 mm | 18 mm | 50 µg/mL (≈ 86.1 µM) | 19 mm | 25 µg/mL (≈ 43.1 µM) | 19 mm | 50 µg/mL (≈ 86.1 µM) | 50 µg/mL (≈ 86.1 µM) | 25 µg/mL (≈ 43.1 µM) | 14 mm | 19 mm | 20 mm | 25 µg/mL (≈ 43.1 µM) | 50 µg/mL (≈ 86.1 µM) | MIC (Proteus vulgaris [21]): 100 µg/mL (≈ 172 µM); zone of inhibition at 100 µg/disc (Aspergillus niger [22]): 20 mm; zone of inhibition at 100 µg/disc (Klebsiella pneumoniae [23]): 15 mm; zone of inhibition at 100 µg/disc (Escherichia coli [24]): 13 mm
2 | COc1ccc(C2SCC(=O)N2c2ccc(Nc3nc(Oc4ccc5c(C)cc(=O)oc5c4)nc(N(C)C)n3)cc2)cc1 (stereo not drawn) | 17 mm | 50 µg/mL (≈ 83.8 µM) | 100 µg/mL (≈ 168 µM) | 15 mm | 100 µg/mL (≈ 168 µM) | 100 µg/mL (≈ 168 µM) | 13 mm | 18 mm | 50 µg/mL (≈ 83.8 µM) | 16 mm | 100 µg/mL (≈ 168 µM) | 16 mm | 50 µg/mL (≈ 83.8 µM) | 100 µg/mL (≈ 168 µM) | 50 µg/mL (≈ 83.8 µM) | 18 mm | 19 mm | 20 mm | 50 µg/mL (≈ 83.8 µM) | 50 µg/mL (≈ 83.8 µM) | MIC (Proteus vulgaris [21]): 50 µg/mL (≈ 83.8 µM); zone of inhibition at 100 µg/disc (Aspergillus niger [22]): 19 mm; zone of inhibition at 100 µg/disc (Klebsiella pneumoniae [23]): 17 mm; zone of inhibition at 100 µg/disc (Escherichia coli [24]): 12 mm
3 | Cc1cc(=O)oc2cc(Oc3nc(Nc4ccc(/N=C/c5ccc(O)cc5)cc4)nc(N(C)C)n3)ccc12 | 18 mm | 100 µg/mL (≈ 197 µM) | 50 µg/mL (≈ 98.3 µM) | 18 mm | 25 µg/mL (≈ 49.2 µM) | 50 µg/mL (≈ 98.3 µM) | 17 mm | 20 mm | 50 µg/mL (≈ 98.3 µM) | 18 mm | 100 µg/mL (≈ 197 µM) | 14 mm | 25 µg/mL (≈ 49.2 µM) | 100 µg/mL (≈ 197 µM) | 50 µg/mL (≈ 98.3 µM) | 19 mm | 19 mm | 16 mm | 50 µg/mL (≈ 98.3 µM) | 100 µg/mL (≈ 197 µM) | MIC (Proteus vulgaris [21]): 50 µg/mL (≈ 98.3 µM); zone of inhibition at 100 µg/disc (Aspergillus niger [22]): 20 mm; zone of inhibition at 100 µg/disc (Klebsiella pneumoniae [23]): 11 mm; zone of inhibition at 100 µg/disc (Escherichia coli [24]): 20 mm
4 | Cc1cc(=O)oc2cc(Oc3nc(Nc4ccc(N5C(=O)CSC5c5ccc(O)cc5O)cc4)nc(N(C)C)n3)ccc12 (stereo not drawn) | 21 mm | 25 µg/mL (≈ 41.8 µM) | 25 µg/mL (≈ 41.8 µM) | 18 mm | 25 µg/mL (≈ 41.8 µM) | 50 µg/mL (≈ 83.5 µM) | 23 mm | 22 mm | 25 µg/mL (≈ 41.8 µM) | 20 mm | 25 µg/mL (≈ 41.8 µM) | 19 mm | 12.5 µg/mL (≈ 20.9 µM) | 50 µg/mL (≈ 83.5 µM) | 12.5 µg/mL (≈ 20.9 µM) | 19 mm | 24 mm | 22 mm | 50 µg/mL (≈ 83.5 µM) | 12.5 µg/mL (≈ 20.9 µM) | MIC (Proteus vulgaris [21]): 50 µg/mL (≈ 83.5 µM); zone of inhibition at 100 µg/disc (Aspergillus niger [22]): 18 mm; zone of inhibition at 100 µg/disc (Klebsiella pneumoniae [23]): 22 mm; zone of inhibition at 100 µg/disc (Escherichia coli [24]): 20 mm
5 | Cc1cc(=O)oc2cc(Oc3nc(Nc4ccc(/N=C/c5ccc(O)cc5O)cc4)nc(N(C)C)n3)ccc12 | 18 mm | 50 µg/mL (≈ 95.3 µM) | 25 µg/mL (≈ 47.7 µM) | 17 mm | 25 µg/mL (≈ 47.7 µM) | 50 µg/mL (≈ 95.3 µM) | 18 mm | 20 mm | 25 µg/mL (≈ 47.7 µM) | 18 mm | 100 µg/mL (≈ 191 µM) | 15 mm | 12.5 µg/mL (≈ 23.8 µM) | 100 µg/mL (≈ 191 µM) | 50 µg/mL (≈ 95.3 µM) | 17 mm | 18 mm | 20 mm | 100 µg/mL (≈ 191 µM) | 25 µg/mL (≈ 47.7 µM) | MIC (Proteus vulgaris [21]): 50 µg/mL (≈ 95.3 µM); zone of inhibition at 100 µg/disc (Aspergillus niger [22]): 14 mm; zone of inhibition at 100 µg/disc (Klebsiella pneumoniae [23]): 19 mm; zone of inhibition at 100 µg/disc (Escherichia coli [24]): 18 mm
6 | Cc1cc(=O)oc2cc(Oc3nc(Nc4ccc(N5C(=O)C(CN6CCN(c7ccccn7)CC6)SC5c5ccc(F)cc5)cc4)nc(N(C)C)n3)ccc12 (stereo not drawn) | 21 mm | 50 µg/mL (≈ 65.8 µM) | 12.5 µg/mL (≈ 16.5 µM) | 26 mm | 25 µg/mL (≈ 32.9 µM) | 6.25 µg/mL (≈ 8.23 µM) | 21 mm | 28 mm | 12.5 µg/mL (≈ 16.5 µM) | 23 mm | 25 µg/mL (≈ 32.9 µM) | 26 mm | 6.25 µg/mL (≈ 8.23 µM) | 6.25 µg/mL (≈ 8.23 µM) | 50 µg/mL (≈ 65.8 µM) | 22 mm | 19 mm | 27 mm | 6.25 µg/mL (≈ 8.23 µM) | 6.25 µg/mL (≈ 8.23 µM) | MIC (Proteus vulgaris [21]): 12.5 µg/mL (≈ 16.5 µM); zone of inhibition at 100 µg/disc (Aspergillus niger [22]): 29 mm; zone of inhibition at 100 µg/disc (Klebsiella pneumoniae [23]): 18 mm; zone of inhibition at 100 µg/disc (Escherichia coli [24]): 20 mm
7 | COc1ccc(C2SCC(=O)N2c2ccc(Nc3nc(Oc4ccc5c(C)cc(=O)oc5c4)nc(N(C)C)n3)cc2)cc1OC (stereo not drawn) | < 10 mm | 100 µg/mL (≈ 160 µM) | 100 µg/mL (≈ 160 µM) | 12 mm | 100 µg/mL (≈ 160 µM) | 100 µg/mL (≈ 160 µM) | 17 mm | 17 mm | 100 µg/mL (≈ 160 µM) | 14 mm | 50 µg/mL (≈ 79.8 µM) | 13 mm | 50 µg/mL (≈ 79.8 µM) | 100 µg/mL (≈ 160 µM) | 100 µg/mL (≈ 160 µM) | 12 mm | 14 mm | < 10 mm | 100 µg/mL (≈ 160 µM) | 100 µg/mL (≈ 160 µM) | MIC (Proteus vulgaris [21]): 100 µg/mL (≈ 160 µM); zone of inhibition at 100 µg/disc (Aspergillus niger [22]): 15 mm; zone of inhibition at 100 µg/disc (Klebsiella pneumoniae [23]): < 10 mm; zone of inhibition at 100 µg/disc (Escherichia coli [24]): 11 mm
